Values quoted from earlier work as cited in patent US20130309325A1, “COMPOSITION AND METHOD FOR PROMOTING JOINT AND BONE HEALTH” (VITAL ANIMAL HEALTH, LLC, priority 2012, published 2013).

Test system: young racing quarter horses
[1] = horses with increased plasma silicon concentrations

## silicon
[1]
  average race times: faster average race times
  distance covered before injury: covered more distance before injury
  strides completed before injury: completed more strides before injury
Supplemental silicon, young racing quarter horses
  incidence of bone related injuries: decreased the incidence of bone related injuries
